Assays:
[1] = target: T1, Receptor-type tyrosine-protein phosphatase C (Homo sapiens, UniProt P08575); parameters: species or system Escherichia coli;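 note: inhibition of CD45 enzyme activity measured using DiFMUP as substrate; in other assays of this panel Not Active means under 50% inhibition at 10 µM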
T1 sequence (P08575 whole entry): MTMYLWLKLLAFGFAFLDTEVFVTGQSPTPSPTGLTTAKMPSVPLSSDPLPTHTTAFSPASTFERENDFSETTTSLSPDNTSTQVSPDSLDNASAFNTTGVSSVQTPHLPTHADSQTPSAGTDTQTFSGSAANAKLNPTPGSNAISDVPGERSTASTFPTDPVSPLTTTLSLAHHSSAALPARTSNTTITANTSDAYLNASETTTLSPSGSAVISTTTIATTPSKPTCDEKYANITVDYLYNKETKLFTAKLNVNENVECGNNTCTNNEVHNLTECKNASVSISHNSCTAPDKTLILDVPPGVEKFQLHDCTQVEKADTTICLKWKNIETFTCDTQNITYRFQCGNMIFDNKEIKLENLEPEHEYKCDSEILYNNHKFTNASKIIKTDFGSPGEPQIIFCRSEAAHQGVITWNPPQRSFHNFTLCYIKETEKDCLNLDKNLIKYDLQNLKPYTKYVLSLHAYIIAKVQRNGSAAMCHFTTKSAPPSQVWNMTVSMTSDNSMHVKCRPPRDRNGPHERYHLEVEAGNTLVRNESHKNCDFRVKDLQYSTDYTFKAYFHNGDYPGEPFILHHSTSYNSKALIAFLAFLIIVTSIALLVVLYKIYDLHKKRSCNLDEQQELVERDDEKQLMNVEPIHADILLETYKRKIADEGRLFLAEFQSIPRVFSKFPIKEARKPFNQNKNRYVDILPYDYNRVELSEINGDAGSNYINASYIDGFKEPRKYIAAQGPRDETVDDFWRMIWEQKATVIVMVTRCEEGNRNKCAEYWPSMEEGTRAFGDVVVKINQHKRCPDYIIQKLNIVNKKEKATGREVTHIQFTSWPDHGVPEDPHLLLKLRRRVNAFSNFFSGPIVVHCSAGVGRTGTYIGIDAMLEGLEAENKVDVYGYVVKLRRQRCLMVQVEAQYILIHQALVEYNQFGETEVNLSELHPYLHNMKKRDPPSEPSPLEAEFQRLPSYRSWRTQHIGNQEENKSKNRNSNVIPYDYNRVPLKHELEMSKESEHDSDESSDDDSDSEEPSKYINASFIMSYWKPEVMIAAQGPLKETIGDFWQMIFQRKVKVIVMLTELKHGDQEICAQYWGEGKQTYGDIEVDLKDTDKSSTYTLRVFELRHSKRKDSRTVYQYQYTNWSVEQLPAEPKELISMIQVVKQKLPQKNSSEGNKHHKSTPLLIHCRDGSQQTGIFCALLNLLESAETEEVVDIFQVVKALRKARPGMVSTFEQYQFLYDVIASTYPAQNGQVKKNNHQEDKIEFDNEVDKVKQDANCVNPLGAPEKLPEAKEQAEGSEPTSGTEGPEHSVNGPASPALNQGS

[2] = target: Protein kinase C alpha type (Homo sapiens, UniProt P17252); format: cell-based; conditions: sf9;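 note: inhibition of PKCalpha kinase activity measured in an enzyme assay with histone as the phosphorylation substrate; in other assays of this panel Not Active means under 50% inhibition at 10 µM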
[3] = target: Cytochrome P450 2E1 (Homo sapiens, UniProt P05181); conditions: bti-tn-5b1-4; note: in other assays of this panel Not Active means under 50% inhibition at 10 µM
[4] = target: 5-hydroxytryptamine receptor 2B (Homo sapiens, UniProt P41595); format: cell membranes, CHO-K1, Membrane; note: in other assays of this panel Not Active means under 50% inhibition at 10 µM
[5] = target: cGMP-specific 3',5'-cyclic phosphodiesterase (Homo sapiens, UniProt O76074); experiment: DRUGMATRIX: Phosphodiesterase PDE5 enzyme inhibition (substrate: [3H]cGMP + cGMP); format: tissue-based; conditions: platelet; Not Active = under 50% inhibition at 10 µM
[6] = target: Nitric oxide synthase 1 (Rattus norvegicus, UniProt P29476); format: tissue-based, Cerebellum; note: in other assays of this panel Not Active means under 50% inhibition at 10 µM
[7] = target: T2, Alpha-1B adrenergic receptor (Rattus norvegicus, UniProt P15823); experiment: DRUGMATRIX: Alpha-1B adrenergic receptor radioligand binding (ligand: prazosin); format: cell membranes, Wistar, Liver, Membrane; conditions: Not Active = under 50% inhibition at 10 µM
T2 sequence (P15823 whole entry): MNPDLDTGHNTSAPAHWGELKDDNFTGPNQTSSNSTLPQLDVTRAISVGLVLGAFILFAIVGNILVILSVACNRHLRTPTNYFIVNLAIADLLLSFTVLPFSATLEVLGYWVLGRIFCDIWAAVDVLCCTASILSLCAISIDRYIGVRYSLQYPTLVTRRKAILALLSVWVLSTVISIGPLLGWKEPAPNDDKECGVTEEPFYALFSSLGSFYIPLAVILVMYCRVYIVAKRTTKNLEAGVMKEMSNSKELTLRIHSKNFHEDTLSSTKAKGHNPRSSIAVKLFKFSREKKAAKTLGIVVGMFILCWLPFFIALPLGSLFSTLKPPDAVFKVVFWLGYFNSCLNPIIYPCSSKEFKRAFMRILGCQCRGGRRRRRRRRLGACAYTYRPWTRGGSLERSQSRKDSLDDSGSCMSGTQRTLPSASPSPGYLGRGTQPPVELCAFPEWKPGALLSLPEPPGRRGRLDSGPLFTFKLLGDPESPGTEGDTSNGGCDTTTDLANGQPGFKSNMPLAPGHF

[8] = DRUGMATRIX: Glutamate, AMPA radioligand binding (ligand: [3H] AMPA); format: cell membranes, Rattus norvegicus, Wistar, Cerebral cortex, Membrane; conditions: Not Active = under 50% inhibition at 10 µM
[9] = DRUGMATRIX: Glutamate, NMDA, Agonism radioligand binding (ligand: [3H] CGP-39653); format: cell membranes, Rattus norvegicus, Wistar, Cerebral cortex, Membrane; conditions: Not Active = under 50% inhibition at 10 µM

Chain of 5-hydroxytryptamine receptor 2B (P41595 whole entry): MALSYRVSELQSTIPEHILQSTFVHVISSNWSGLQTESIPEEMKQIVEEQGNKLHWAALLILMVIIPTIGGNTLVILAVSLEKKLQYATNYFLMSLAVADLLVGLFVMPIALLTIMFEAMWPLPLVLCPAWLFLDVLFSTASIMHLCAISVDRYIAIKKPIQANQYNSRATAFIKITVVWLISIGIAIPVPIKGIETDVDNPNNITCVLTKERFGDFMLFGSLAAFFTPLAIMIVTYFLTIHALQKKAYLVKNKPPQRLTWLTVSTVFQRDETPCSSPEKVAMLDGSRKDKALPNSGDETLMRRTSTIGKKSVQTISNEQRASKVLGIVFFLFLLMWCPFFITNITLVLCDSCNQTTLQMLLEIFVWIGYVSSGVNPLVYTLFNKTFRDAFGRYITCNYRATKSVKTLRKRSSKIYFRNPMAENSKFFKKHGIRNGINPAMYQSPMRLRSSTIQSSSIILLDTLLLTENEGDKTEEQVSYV
Chain of Cytochrome P450 2E1 (P05181 whole entry): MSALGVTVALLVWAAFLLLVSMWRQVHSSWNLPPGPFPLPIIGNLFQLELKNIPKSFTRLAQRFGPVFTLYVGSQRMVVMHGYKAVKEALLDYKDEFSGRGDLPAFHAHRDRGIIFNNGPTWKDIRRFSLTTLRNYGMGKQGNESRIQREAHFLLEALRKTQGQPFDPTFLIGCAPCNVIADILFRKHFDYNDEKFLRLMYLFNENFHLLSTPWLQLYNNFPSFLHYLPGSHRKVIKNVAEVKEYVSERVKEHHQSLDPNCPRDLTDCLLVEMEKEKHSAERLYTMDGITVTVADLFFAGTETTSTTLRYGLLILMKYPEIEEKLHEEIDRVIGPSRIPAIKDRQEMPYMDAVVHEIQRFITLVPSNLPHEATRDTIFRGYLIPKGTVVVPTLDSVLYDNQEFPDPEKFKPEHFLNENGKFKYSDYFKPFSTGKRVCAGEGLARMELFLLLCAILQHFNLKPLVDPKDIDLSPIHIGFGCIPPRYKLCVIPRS
Chain of Nitric oxide synthase 1 (P29476 whole entry): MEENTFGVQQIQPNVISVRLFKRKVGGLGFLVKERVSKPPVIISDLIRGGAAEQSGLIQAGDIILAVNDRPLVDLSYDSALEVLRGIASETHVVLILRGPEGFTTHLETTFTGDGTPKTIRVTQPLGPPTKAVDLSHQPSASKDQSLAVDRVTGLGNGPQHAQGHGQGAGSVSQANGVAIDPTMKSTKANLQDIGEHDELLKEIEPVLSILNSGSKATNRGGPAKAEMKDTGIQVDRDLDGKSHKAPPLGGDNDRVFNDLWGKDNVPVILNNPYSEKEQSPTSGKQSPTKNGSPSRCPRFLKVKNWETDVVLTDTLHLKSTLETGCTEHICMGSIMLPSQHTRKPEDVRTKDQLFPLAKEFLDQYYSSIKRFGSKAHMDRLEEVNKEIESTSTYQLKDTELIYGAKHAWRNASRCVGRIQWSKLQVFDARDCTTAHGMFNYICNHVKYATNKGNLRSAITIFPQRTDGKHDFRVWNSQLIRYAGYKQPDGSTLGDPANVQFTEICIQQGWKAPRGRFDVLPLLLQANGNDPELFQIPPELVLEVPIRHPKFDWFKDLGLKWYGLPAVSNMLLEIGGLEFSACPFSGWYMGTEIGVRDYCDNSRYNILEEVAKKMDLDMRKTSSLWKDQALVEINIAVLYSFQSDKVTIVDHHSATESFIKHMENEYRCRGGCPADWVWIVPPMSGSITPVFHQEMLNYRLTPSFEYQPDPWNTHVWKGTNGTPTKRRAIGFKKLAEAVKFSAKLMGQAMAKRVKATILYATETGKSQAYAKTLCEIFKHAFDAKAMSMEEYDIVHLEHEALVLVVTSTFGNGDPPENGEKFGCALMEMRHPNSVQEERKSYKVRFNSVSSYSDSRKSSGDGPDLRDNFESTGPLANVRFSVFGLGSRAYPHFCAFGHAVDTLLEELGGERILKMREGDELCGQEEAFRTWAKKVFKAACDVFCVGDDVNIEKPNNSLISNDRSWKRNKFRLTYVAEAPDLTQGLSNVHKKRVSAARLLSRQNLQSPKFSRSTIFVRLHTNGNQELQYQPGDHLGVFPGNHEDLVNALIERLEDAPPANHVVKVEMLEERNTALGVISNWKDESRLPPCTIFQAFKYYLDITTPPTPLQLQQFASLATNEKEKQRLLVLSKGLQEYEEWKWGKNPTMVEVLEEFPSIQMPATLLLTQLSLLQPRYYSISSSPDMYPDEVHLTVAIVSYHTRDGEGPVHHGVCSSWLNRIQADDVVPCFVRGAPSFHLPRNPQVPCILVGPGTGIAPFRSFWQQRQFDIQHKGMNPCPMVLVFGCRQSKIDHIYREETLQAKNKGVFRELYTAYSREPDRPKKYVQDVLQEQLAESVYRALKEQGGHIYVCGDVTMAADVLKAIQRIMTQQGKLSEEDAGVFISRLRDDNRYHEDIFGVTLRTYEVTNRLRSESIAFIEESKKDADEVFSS

| SMILES | IC50 [1] | IC50 [2] | IC50 [3] | Ki [3] | IC50 ([4]; cho-k1) | IC50 [5] | IC50 [6] | IC50 [7] | IC50 [8] | Ki [8] | IC50 [9] | Ki [9] | Ki [1] | IC50 ([4]; read-out: IC50) | Ki ([4]; read-out: Ki) |
| --- | --- | --- | --- | --- | --- | --- | --- | --- | --- | --- | --- | --- | --- | --- | --- |
| N[C@@H](Cc1ccc(N(CCCl)CCCl)cc1)C(=O)O | Not Active | Not Active | Not Active | Not Active | Not Active | Not Active | Not Active | Not Active | Not Active | Not Active | Not Active | Not Active | – | – | – |
| CC(C)N1CCN(c2ccc(OCC3COC(Cn4cncn4)(c4ccc(Cl)cc4Cl)O3)cc2)CC1 (centres undefined) [TERCONAZOLE] | Not Active | Not Active | Not Active | Not Active | Not Active | Not Active | Not Active | – | Not Active | Not Active | Not Active | Not Active | – | – | – |
| Cc1nc2n(c(=O)c1CCN1CCC(c3noc4cc(F)ccc34)CC1)CCCC2 [RISPERIDONE] | Not Active | Not Active | Not Active | Not Active | – | Not Active | Not Active | – | – | – | – | – | – | – | – |
| N[C@@H]1[C@H]2CN(c3nc4c(cc3F)c(=O)c(C(=O)O)cn4-c3ccc(F)cc3F)C[C@@H]12 [TROVAFLOXACIN] | Not Active | Not Active | Not Active | Not Active | Not Active | Not Active | Not Active | Not Active | Not Active | Not Active | Not Active | Not Active | – | – | – |
| O=c1ncn2nc(Sc3ccc(F)cc3F)ccc2c1-c1c(Cl)cccc1Cl [NEFLAMAPIMOD] | Not Active | Not Active | Not Active | Not Active | Not Active | Not Active | Not Active | Not Active | Not Active | Not Active | Not Active | Not Active | – | – | – |
| CCCCc1oc2ccccc2c1C(=O)c1cc(I)c(OCCN(CC)CC)c(I)c1 [AMIODARONE] | Not Active | Not Active | Not Active | Not Active | – | Not Active | Not Active | – | – | – | – | – | – | – | – |
| CC[C@]1(O)C[C@H]2CN(CCc3c([nH]c4ccccc34)[C@@](C(=O)OC)(c3cc4c(cc3OC)N(C=O)[C@H]3[C@@](O)(C(=O)OC)[C@H](OC(C)=O)[C@]5(CC)C=CCN6CC[C@]43[C@@H]65)C2)C1 [VINCRISTINE] | Not Active | Not Active | Not Active | Not Active | Not Active | Not Active | Not Active | Not Active | Not Active | Not Active | Not Active | Not Active | – | – | – |
| CO[C@H]1/C=C/O[C@@]2(C)Oc3c(C)c(O)c4c(O)c(c(/C=N/N5CCN(C)CC5)c(O)c4c3C2=O)NC(=O)/C(C)=C\C=C\[C@H](C)[C@H](O)[C@@H](C)[C@@H](O)[C@@H](C)[C@H](OC(C)=O)[C@@H]1C [RIFAMPIN] | Not Active | Not Active | Not Active | Not Active | Not Active | Not Active | Not Active | Not Active | Not Active | Not Active | Not Active | Not Active | – | – | – |
| Cc1noc(NS(=O)(=O)c2ccc(N)cc2)c1C [SULFISOXAZOLE] | Not Active | Not Active | Not Active | Not Active | Not Active | Not Active | Not Active | Not Active | Not Active | Not Active | Not Active | Not Active | – | – | – |
| NS(=O)(=O)c1cc2c(cc1Cl)NC(C(Cl)Cl)NS2(=O)=O (centres undefined) [TRICHLORMETHIAZIDE] | Not Active | Not Active | Not Active | Not Active | Not Active | Not Active | Not Active | Not Active | Not Active | Not Active | Not Active | Not Active | – | – | – |
| COc1nc(C)nc(Cl)c1NC1=NCCN1 [MOXONIDINE] | Not Active | Not Active | Not Active | Not Active | Not Active | Not Active | Not Active | Not Active | Not Active | Not Active | Not Active | Not Active | – | – | – |
| Nc1nc2ccc(OC(F)(F)F)cc2s1 [RILUZOLE] | – | Not Active | – | – | Not Active | Not Active | Not Active | Not Active | Not Active | Not Active | Not Active | Not Active | Not Active | – | – |
| N[C@@H](Cc1cc(I)c(Oc2ccc(O)c(I)c2)c(I)c1)C(=O)O [LIOTHYRONINE] | Not Active | Not Active | Not Active | Not Active | Not Active | Not Active | Not Active | Not Active | – | – | – | – | – | – | – |
| CN1CCN(CCCN2c3ccccc3Sc3ccc(Cl)cc32)CC1 [PROCHLORPERAZINE] | Not Active | Not Active | Not Active | Not Active | – | Not Active | Not Active | – | – | – | – | – | – | – | – |
| CCOC(=O)N1CCC(=C2c3ccc(Cl)cc3CCc3cccnc32)CC1 [LORATADINE] | Not Active | Not Active | Not Active | Not Active | – | Not Active | Not Active | Not Active | Not Active | Not Active | Not Active | Not Active | – | – | – |
| OCCN(CCO)c1nc(N2CCCCC2)c2nc(N(CCO)CCO)nc(N3CCCCC3)c2n1 [DIPYRIDAMOLE] | Not Active | Not Active | Not Active | Not Active | Not Active | – | Not Active | Not Active | Not Active | Not Active | Not Active | Not Active | – | – | – |
| CC/C(=C(\c1ccccc1)c1ccc(OCCN(C)C)cc1)c1ccccc1 [TAMOXIFEN] | Not Active | Not Active | Not Active | Not Active | – | Not Active | Not Active | – | – | – | – | – | – | 2080 nM | 1330 nM |
| CCCOc1ccccc1-c1nc2nn[nH]c2c(=O)[nH]1 [ZAPRINAST] | Not Active | Not Active | Not Active | Not Active | Not Active | – | Not Active | Not Active | Not Active | Not Active | Not Active | Not Active | – | – | – |
